Experimental data as given in patent publication US20250296960A1, “PEPTIDE COMPOSITIONS AND METHODS OF USE THEREOF” (priority 2022, published 2025).
Numbered stars: 1 amine (or outer) side, 2 acyl side, 3 side chain; on linkers, the order of the positions; unused ones are H or OH. Square brackets hold non-standard residues; d marks the D form. Side chains are listed from the residue outwards. Peptide text beside a SMILES is read from it. * marks the point of attachment. Biotin = O=C1N[C@H]2[C@H](CS[C@H]2CCCCC(=O)*)N1; C18 diacid = O=C(O)CCCCCCCCCCCCCCCCC(=O)*; γGlu = O=C(O)[C@H](CCC(=O)[*:2])N[*:1]; AEEA = NCCOCCOCC(=O)O; Aib = CC(C)(N)C(=O)O

Assay: Intestinal absorption / PK after intraduodenal administration of oral formulation in rats, serum LC-MS/MS
Conditions: rat, in vivo, 300 nmol/kg
Protocol: This study was conducted to evaluate the intestinal absorption of peptides following enteral administration of oral pharmaceutical formulations. The pharmaceutical formulation was administered in a form of suspensions by intraduodenal (ID) injection in rats. SEQ ID_87, 89 and 90 was accurately weighed and dissolved in 10 mM PBS containing polysorbate 80 (pH 7.4, vehicle I). The mixture was vortexed for 5 min to get a clear solution. Then, 2.5 mL of vehicle was added to the mixture and vortexed for 30 min to get homogenous opaque suspension. The composition of Vehicle II was sodium chenodeoxycholate, and propyl gallate in polysorbate 80 in PBS. The animals were not fasted prior to dosing. 0.2˜ 0.4 mL of whole blood was taken from vein at each time point (0, 0.167, 0.5, 1, 2, 4, 8, 24, and 48 hrs after IV or ID administration). The collected whole blood was incubated at room temperature for 20 min and tubes were centrifugated at 13,000 rpm for 10 min at 4° C. The resulting serum 0.1˜ 0.2 mL was transferred into the tube and stored at −70° C. until analysis. The concentrations of peptides in serum were determined by LC-MS/MS analysis. PK parameters were analyzed by non-compartmental analysis using Phoenix WinNonlin 5.0.1. software (Pharsight Corporation, Mountain View, CA, USA).

Compound	AUC(0-inf)	Cmax	MRT inf	Tmax	half-life
CSCC[C@H](NC(=O)[C@H](CCCCNC(=O)CCCC[C@@H]1SC[C@@H]2NC(=O)N[C@@H]21)NC(=O)[C@H](Cc1ccc(O)cc1)NC(=O)[C@H](CC(=O)O)NC(=O)[C@H](CC(C)C)NC(=O)[C@H](CC(C)C)NC(=O)[C@H](CCCCNC(=O)COCCOCCNC(=O)COCCOCCNC(=O)CC[C@H](NC(=O)CCCCCCCCCCCCCCCCC(=O)O)C(=O)O)NC(=O)[C@H](CO)NC(=O)[C@H](Cc1ccc(O)cc1)NC(=O)[C@H](CC(=O)O)NC(=O)[C@H](CO)NC(=O)[C@@H](NC(=O)[C@H](Cc1ccccc1)NC(=O)[C@@H](NC(=O)CNC(=O)[C@H](CCC(N)=O)NC(=O)C(C)(C)NC(=O)[C@@H](N)Cc1ccc(O)cc1)[C@@H](C)O)[C@@H](C)O)C(=O)N[C@@H](CCC(N)=O)C(=O)N[C@@H](CCCNC(=N)N)C(=O)N[C@@H](CC(=O)O)C(=O)N[C@@H](Cc1ccccc1)C(=O)N[C@H](C(=O)N[C@@H](CCC(N)=O)C(=O)N[C@@H](Cc1c[nH]c2ccccc12)C(=O)N[C@@H](CC(C)C)C(=O)N[C@@H](CC(C)C)C(=O)N[C@@H](CCC(=O)O)C(=O)NCC(=O)NCC(=O)N1CCC[C@H]1C(=O)N[C@@H](CO)C(=O)N[C@@H](CO)C(=O)NCC(=O)N[C@@H](C)C(=O)N1CCC[C@H]1C(=O)N1CCC[C@H]1C(=O)N1CCC[C@H]1C(=O)N[C@@H](CO)C(N)=O)C(C)C [SEQ ID NO. 87, YAibQGT FTSDY SK*LLD YB*MQR DFVQW LLEGG PSSGA PPPS] (H-Y[Aib]QGTFTSDYSK([AEEA-AEEA-γGlu-C18 diacid])LLDYK(Biotin)MQRDFVQWLLEGGPSSGAPPPS-NH2; N-terminus and C-terminus assumed)	1860 ng·h/mL	290 ± 110 ng/mL	8.19 ± 1.92 h	0.25 ± 0.17 h	6.17 ± 1.36 h
CSCC[C@H](NC(=O)[C@H](Cc1ccc(O)cc1)NC(=O)[C@H](CC(=O)O)NC(=O)[C@H](CC(C)C)NC(=O)[C@H](CC(C)C)NC(=O)[C@H](CCCCNC(=O)COCCOCCNC(=O)COCCOCCNC(=O)CC[C@H](NC(=O)CCCCCCCCCCCCCCCCC(=O)O)C(=O)O)NC(=O)[C@H](CO)NC(=O)[C@H](Cc1ccc(O)cc1)NC(=O)[C@H](CC(=O)O)NC(=O)[C@H](CO)NC(=O)[C@@H](NC(=O)[C@H](Cc1ccccc1)NC(=O)[C@@H](NC(=O)CNC(=O)[C@H](CCC(N)=O)NC(=O)C(C)(C)NC(=O)[C@@H](N)Cc1ccc(O)cc1)[C@@H](C)O)[C@@H](C)O)C(=O)N[C@@H](CCSC)C(=O)N[C@@H](CCC(N)=O)C(=O)N[C@@H](CCCNC(=N)N)C(=O)N[C@@H](CC(=O)O)C(=O)N[C@@H](Cc1ccccc1)C(=O)N[C@H](C(=O)N[C@@H](CCC(N)=O)C(=O)N[C@@H](Cc1c[nH]c2ccccc12)C(=O)N[C@@H](CC(C)C)C(=O)N[C@@H](CC(C)C)C(=O)N[C@@H](CCC(=O)O)C(=O)NCC(=O)NCC(=O)N1CCC[C@H]1C(=O)N[C@@H](CO)C(=O)N[C@@H](CO)C(=O)NCC(=O)N[C@@H](C)C(=O)N1CCC[C@H]1C(=O)N1CCC[C@H]1C(=O)N1CCC[C@H]1C(=O)N[C@@H](CO)C(=O)N[C@@H](CCCCNC(=O)CCCC[C@@H]1SC[C@@H]2NC(=O)N[C@@H]21)C(N)=O)C(C)C [SEQ ID_90] (H-Y[Aib]QGTFTSDYSK([AEEA-AEEA-γGlu-C18 diacid])LLDYMMQRDFVQWLLEGGPSSGAPPPSK(Biotin)-NH2; N-terminus and C-terminus assumed)	2490 ng·h/mL	282 ± 88.5 ng/mL	11.8 ± 1.48 h	0.3 ± 0.18 h	8.37 ± 0.92 h
